# Molecular target: KCNT1 (KNa1.1, Slack) (Homo sapiens (Human), UniProt Q5JUK3)
# Assay: KCNT1-WT-Basal - Patch Clamp Assay
# Type: cell-based
# Settings: tetracycline inducible HEK-TREX cell line; SyncroPatch 384PE automated patch clamp; step to 0 mV; room temperature
# Method: Inhibition of KCNT1 (KNa1.1, Slack) was evaluated using a tetracycline inducible cell line (HEK-TREX). Currents were recorded using the SyncroPatch 384PE automated, patch clamp system. Pulse generation and data collection were performed with PatchController384 V1.3.0 and DataController384 V1.2.1 (Nanion Technologies). The access resistance and apparent membrane capacitance were estimated using built-in protocols. Current were recorded in perforated patch mode (10 µM escin) from a population of cells. The cells were lifted, triturated, and resuspended at 800,000 cells/ml. The cells were allowed to recover in the cell hotel prior to experimentation. Currents were recorded at room temperature. The external solution contained the following (in mM): NaCl 105, NMDG 40, KC1 4, MgC12 1, CaC12 5 and HEPES 10 (pH = 7.4, Osmolarity ~300 mOsm). The extracellular solution was used as the wash, reference and compound delivery solution. The internal solution contained the following (in mM): NaCl 70, KF 70, KC1 10, EGTA 5, HEPES 5 and Escin 0.01 (pH = 7.2, Osmolarity ~295 mOsm). Escin is made at a 5 mM stock in water, aliquoted, and stored at -20° C. The compound plate was created at 2x concentrated in the extracellular solution. The compound was diluted to 1:2 when added to the recording well. The amount of DMSO in the extracellular solution was held constant at the level used for the highest tested concentration. A holding potential of -80 mV with a 100 ms step to 0 mV was used. Mean current was measured during the step to 0 mV. […] The average mean current from 3 sweeps was calculated and the % inhibition of each compound was calculated. The % Inhibition as a function of the compound concentration was fit with a Hill equation to derive IC50, slope, min and max parameters. If KCNT1 inhibition was less than 50% at the highest tested concentration or if an IC50 could not be calculated, then a percent inhibition was reported in place of the IC50.
# In this table, “A” indicates IC50 of less than or equal to 1 µM; “B” indicates inhibition of between 1 µM to 20 µM; and “C” indicates inhibition of greater than or equal to 20 µM.
# Chain of KCNT1 (KNa1.1, Slack) (Q5JUK3 whole entry): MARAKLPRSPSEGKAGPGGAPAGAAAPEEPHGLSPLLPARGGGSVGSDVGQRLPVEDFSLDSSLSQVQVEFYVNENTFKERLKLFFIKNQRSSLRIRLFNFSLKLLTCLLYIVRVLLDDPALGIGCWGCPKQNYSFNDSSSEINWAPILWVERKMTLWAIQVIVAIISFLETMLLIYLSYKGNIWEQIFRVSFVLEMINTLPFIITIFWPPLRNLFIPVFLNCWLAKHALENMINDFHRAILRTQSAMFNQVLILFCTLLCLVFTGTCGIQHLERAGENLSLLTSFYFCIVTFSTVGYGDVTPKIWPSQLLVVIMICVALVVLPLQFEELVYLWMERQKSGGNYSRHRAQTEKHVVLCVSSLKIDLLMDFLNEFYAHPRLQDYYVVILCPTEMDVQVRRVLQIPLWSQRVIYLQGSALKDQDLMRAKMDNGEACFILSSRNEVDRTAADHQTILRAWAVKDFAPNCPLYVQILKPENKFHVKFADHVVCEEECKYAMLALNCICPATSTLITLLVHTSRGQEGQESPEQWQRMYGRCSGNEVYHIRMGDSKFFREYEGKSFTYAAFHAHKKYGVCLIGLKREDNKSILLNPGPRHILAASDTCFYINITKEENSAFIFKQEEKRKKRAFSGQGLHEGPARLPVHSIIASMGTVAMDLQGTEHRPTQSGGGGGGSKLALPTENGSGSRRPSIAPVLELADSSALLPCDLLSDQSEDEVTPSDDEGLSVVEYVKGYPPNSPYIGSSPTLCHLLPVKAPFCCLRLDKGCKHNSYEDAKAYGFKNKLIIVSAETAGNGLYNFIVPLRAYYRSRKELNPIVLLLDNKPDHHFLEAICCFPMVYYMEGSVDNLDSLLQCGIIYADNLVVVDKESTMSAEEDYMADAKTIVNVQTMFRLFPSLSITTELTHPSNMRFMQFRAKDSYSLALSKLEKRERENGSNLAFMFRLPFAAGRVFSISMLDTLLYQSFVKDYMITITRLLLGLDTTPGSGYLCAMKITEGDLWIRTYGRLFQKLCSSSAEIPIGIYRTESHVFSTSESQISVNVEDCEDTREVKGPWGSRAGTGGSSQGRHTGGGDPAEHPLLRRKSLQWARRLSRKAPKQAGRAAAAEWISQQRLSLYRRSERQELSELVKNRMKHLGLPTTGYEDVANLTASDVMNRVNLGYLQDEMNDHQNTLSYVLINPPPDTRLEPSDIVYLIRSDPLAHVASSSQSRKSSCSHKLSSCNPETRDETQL
row,IC50 [µM],Structure (SMILES)
1,1 to 20,"C[C@H](NC(=O)c1cc(C(F)(F)F)nn1C)c1nc(N2CCCCC2)ns1 [Example 46, 2-methyl-N-[(1S)-1-[3-(1-piperidyl)-1,2,4-thiadiazol-5-yl]ethyl]-5-(trifluoromethyl)pyrazole-3-carboxamide]"
2,1 to 20,"C[C@@H](NC(=O)c1cc(C(F)(F)F)nn1C)c1nc(N2CCCCC2)ns1 [Example 47, 2-methyl-N-[(1R)-1-[3-(1-piperidyl)-1,2,4-thiadiazol-5-yl]ethyl]-5-(trifluoromethyl)pyrazole-3-carboxamide]"
